According to patent US20140343049A1, “DIHYDROFURAN DERIVATIVES AS INSECTICIDAL COMPOUNDS” (SYNGENTA PARTICIPATIONS AG, priority 2011, published 2014):

How the values were obtained:
Type in all cases: in vivo
[1] = system: Spodoptera littoralis (Egyptian cotton leafworm); experiment: Spodoptera littoralis cotton leaf disc spray test; settings: foliar, 72 h, cotton leaf discs sprayed at 200 ppm, 5 L1 larvae, mortality, feeding behavior, growth regulation 3 days after treatment
Text: Cotton leaf discs were placed on agar in a 24-well microtiter plate and sprayed with test solutions at an application rate of 200 ppm. After drying, the leaf discs were infested with 5 L1 larvae. The samples were checked for mortality, feeding behavior, and growth regulation 3 days after treatment (DAT).

[2] = system: Heliothis virescens (tobacco budworm); experiment: Heliothis virescens egg test on artificial diet; settings: 96 h, 200 ppm (concentration in well 18 ppm), eggs 0-24 h old, 4 days, egg mortality, larval mortality, growth regulation
Protocol: Eggs (0-24 h old) were placed in 24-well microtiter plate on artificial diet and treated with test solutions at an application rate of 200 ppm (concentration in well 18 ppm) by pipetting. After an incubation period of 4 days, samples were checked for egg mortality, larval mortality, and growth regulation.

[3] = system: Myzus persicae (green peach aphid); experiment: Myzus persicae (sachet) mixed population test; settings: 120 h, sucrose solution, application rate 12.5 ppm, mortality 5 days after infestation
Text: Test compounds were applied by pipette into 24 well plates and mixed with Sucrose solution. The plates were closed with a stretched Parafilm. A plastic stencil with 24 holes is placed onto the plate and infested pea seedlings were placed directly on the Parafilm. The infested plate is closed with a gel blotting paper and another plastic stencil and then turned upside down. 5 days after infestation the samples were checked on mortality. Application rate: 12.5 ppm.

[4] = system: Thrips tabaci (onion thrips); experiment: Thrips tabaci sunflower leaf disc spray test; settings: foliar, 168 h, sunflower leaf discs sprayed at 200 ppm, mixed ages, mortality after 7 days
Protocol: Sunflower leaf discs were placed on agar in a 24-well microtiter plate and sprayed with test solutions at an application rate of 200 ppm. […] After drying, the leaf discs were infested with a thrip population of mixed ages. After an incubation period of 7 days, samples were checked for mortality.

[5] = system: Tetranychus urticae (two-spotted spider mite); experiment: Tetranychus urticae bean leaf disc spray test; settings: foliar, 192 h, bean leaf discs sprayed at 200 ppm, mixed ages, egg, larval and adult mortality 8 days later
Summary of the method: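 Leaf discs of bean on agar were sprayed at 200 ppm, dried, then infested with mixed-age mites. Egg, larval and adult mortality were scored 8 days later.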

[6] = system: Plutella xylostella (diamond back moth); experiment: Plutella xylostella L2 larvae test on artificial diet; settings: 144 h, 200 ppm (concentration in well 18 ppm), 6 days, larval mortality and growth regulation
Protocol: 24-well microtiter plate (MTP) with artificial diet was treated with test solutions at an application rate of 200 ppm (concentration in well 18 ppm) by pipetting. After drying, the MTPs were infested with L2 larvae (7-12 per well). After an incubation period of 6 days, samples were checked for larval mortality and growth regulation.

[7] = system: Diabrotica balteata (corn root worm); experiment: Diabrotica balteata L2 larvae test on artificial diet; settings: 120 h, 200 ppm (concentration in well 18 ppm), 5 days, larval mortality and growth regulation
Summary of the method: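 Artificial diet treated with test solution at 200 ppm or 12.5 ppm application rate (in-well concentration stated as 18 ppm), dried, then infested with 6-10 L2 larvae per well. Larval mortality and growth regulation scored after 5 days.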

[8] = system: Spodoptera littoralis (Egyptian cotton leaf worm); experiment: Spodoptera littoralis (systemic) test, compound in agar taken up by salad roots; settings: 120 h, application rate 12.5 ppm, checked 5 days after infestation for mortality, repellent effect, feeding behavior, growth regulation
Text: Test compounds were applied by pipette into 24 well plates and mixed with agar. Salad seeds were placed on the agar and the multi well plate is closed by another plate which contains also agar. After 7 days the roots have absorbed the compound and the salad has grown into the lid plate. The salad leafs were now cut off into the lid plate. Spodoptera eggs were pipette through a plastic stencil on a humid gel blotting paper and the plate closed with it. The samples are checked for mortality, repellent effect, feeding behavior, and growth regulation 5 days after infestation. Application rate: 12.5 ppm
Test compounds were applied by pipette into 24 well plates and mixed with agar. Salad seeds were placed on the agar and the multi well plate is closed by another plate which contains also agar. After 7 days the roots have absorbed the compound and the salad has grown into the lid plate. The salad leafs were now cut off into the lid plate. Spodoptera eggs were pipette through a plastic stencil on a humid gel blotting paper and the plate closed with it. The samples are checked for mortality, repellent effect, feeding behavior, and growth regulation 5 days after infestation.

Cc1cc(C2=CC(c3cc(Cl)cc(Cl)c3)(C(F)(F)F)OC2)ccc1C(=O)NC1CSC1 (stereo not drawn) [Compound A2]
≥ 80%: pest or weed control at 200 ppm [1] | pest or weed control at 200 ppm [2] | pest or weed control at 12.5 ppm [3] | pest or weed control at 200 ppm [4] | pest or weed control at 200 ppm [5]

Cc1cc(C2=CC(c3cc(Cl)cc(Cl)c3)(C(F)(F)F)OC2)ccc1C(=O)NCc1ccc(S(C)(=O)=O)cc1 (stereo not drawn) [Compound A25]
≥ 80%: pest or weed control at 200 ppm [1] | pest or weed control at 200 ppm [2] | pest or weed control at 200 ppm [6] | pest or weed control at 200 ppm [7] | pest or weed control at 12.5 ppm [3] | pest or weed control at 200 ppm [5]

Cc1cc(C2=CC(c3cc(Cl)cc(Cl)c3)(C(F)(F)F)OC2)ccc1C(=O)NC1C[S+]([O-])C1 (stereo not drawn) [Compound A77]
≥ 80%: pest or weed control at 12.5 ppm [3] | pest or weed control at 200 ppm [4]

Cc1cc(C2=CC(c3cc(Cl)cc(Cl)c3)(C(F)(F)F)OC2)ccc1C(=O)NCC1CSC1 (stereo not drawn) [Compound A78]
≥ 80%: pest or weed control at 200 ppm [1] | pest or weed control at 200 ppm [2] | pest or weed control at 200 ppm [6] | pest or weed control at 200 ppm [7] | pest or weed control at 12.5 ppm [3] | pest or weed control at 200 ppm [4] | pest or weed control at 200 ppm [5]

Cc1cc(C2=CC(c3cc(Cl)cc(Cl)c3)(C(F)(F)F)OC2)ccc1C(=O)NCCC1CSC1 (stereo not drawn) [Compound A82]
≥ 80%: pest or weed control at 200 ppm [1] | pest or weed control at 200 ppm [2] | pest or weed control at 200 ppm [6] | pest or weed control at 200 ppm [7] | pest or weed control at 12.5 ppm [3] | pest or weed control at 200 ppm [4] | pest or weed control at 200 ppm [5]

Cc1cc(C2=CC(c3cc(Cl)cc(Cl)c3)(C(F)(F)F)OC2)ccc1C(=O)NCCC1CS(=O)(=O)C1 (stereo not drawn) [Compound A83]
≥ 80%: pest or weed control at 200 ppm [1] | pest or weed control at 200 ppm [2] | pest or weed control at 200 ppm [6] | pest or weed control at 200 ppm [7] | pest or weed control at 12.5 ppm [3] | pest or weed control at 200 ppm [5]

Cc1nc(C2=CC(c3cc(Cl)cc(Cl)c3)(C(F)(F)F)OC2)ccc1C(=O)NC1C[S+]([O-])C1 (stereo not drawn) [Compound C22]
≥ 80%: pest or weed control at 200 ppm [1] | pest or weed control at 200 ppm [2] | pest or weed control at 200 ppm [6] | pest or weed control at 200 ppm [7] | pest or weed control at 12.5 ppm [3] | pest or weed control at 200 ppm [4] | pest or weed control at 200 ppm [5]

CCCCNC(=O)c1ccc(C2=CC(c3cc(Cl)cc(Cl)c3)(C(F)(F)F)OC2)cc1C (stereo not drawn) [Compound D3]
≥ 80%: pest or weed control at 12.5 ppm [3] | pest or weed control at 200 ppm [4] | pest or weed control at 200 ppm [5]

COCC(C)NC(=O)c1ccc(C2=CC(c3cc(Cl)cc(Cl)c3)(C(F)(F)F)OC2)cc1C (stereo not drawn) [Compound D4]
≥ 80%: pest or weed control at 12.5 ppm [3] | pest or weed control at 200 ppm [4] | pest or weed control at 200 ppm [5]

Cc1cc(C2=CC(c3cc(Cl)cc(Cl)c3)(C(F)(F)F)OC2)ccc1C(=O)NCc1ccccc1 (stereo not drawn) [Compound D9]
≥ 80%: pest or weed control at 200 ppm [1] | pest or weed control at 200 ppm [2] | pest or weed control at 200 ppm [6] | pest or weed control at 12.5 ppm [3] | pest or weed control at 200 ppm [4] | pest or weed control at 200 ppm [5]

Cc1cc(C2=CC(c3cc(Cl)cc(Cl)c3)(C(F)(F)F)OC2)ccc1C(=O)NCc1ccccc1F (stereo not drawn) [Compound D10]
≥ 80%: pest or weed control at 200 ppm [1] | pest or weed control at 200 ppm [2] | pest or weed control at 200 ppm [6] | pest or weed control at 200 ppm [7] | pest or weed control at 12.5 ppm [3] | pest or weed control at 200 ppm [4] | pest or weed control at 200 ppm [5]

Cc1cc(C2=CC(c3cc(Cl)cc(Cl)c3)(C(F)(F)F)OC2)ccc1C(=O)NC(C)c1ccccc1 (stereo not drawn) [Compound D11]
≥ 80%: pest or weed control at 200 ppm [7] | pest or weed control at 12.5 ppm [3] | pest or weed control at 200 ppm [4]

COc1ccc(CNC(=O)c2ccc(C3=CC(c4cc(Cl)cc(Cl)c4)(C(F)(F)F)OC3)cc2C)cc1 (stereo not drawn) [Compound D12]
≥ 80%: pest or weed control at 200 ppm [7] | pest or weed control at 12.5 ppm [3] | pest or weed control at 200 ppm [4]

Cc1cc(NC(=O)c2ccc(C3=CC(c4cc(Cl)cc(Cl)c4)(C(F)(F)F)OC3)cc2C)n(C)n1 (stereo not drawn) [Compound D16]
≥ 80%: pest or weed control at 200 ppm [7] | pest or weed control at 12.5 ppm [3] | pest or weed control at 200 ppm [4]

Cc1cc(C2=CC(c3cc(Cl)cc(Cl)c3)(C(F)(F)F)OC2)ccc1C(=O)NC1(C)CSC1 (stereo not drawn) [Compound D18]
≥ 80%: pest or weed control at 200 ppm [7] | pest or weed control at 12.5 ppm [3] | pest or weed control at 200 ppm [4]

CSCC(C)(C)NC(=O)c1ccc(C2=CC(c3cc(Cl)cc(Cl)c3)(C(F)(F)F)OC2)cc1C (stereo not drawn) [Compound D19]
≥ 80%: pest or weed control at 200 ppm [1] | pest or weed control at 200 ppm [2] | pest or weed control at 200 ppm [6] | pest or weed control at 200 ppm [7] | pest or weed control at 12.5 ppm [3] | pest or weed control at 200 ppm [5]

Cc1cc(C2=CC(c3cc(Cl)cc(Cl)c3)(C(F)(F)F)OC2)ccc1C(=O)NC1C[S+]([O-])C1 (stereo not drawn) [Compound D20]
≥ 80%: pest or weed control at 12.5 ppm [8] | pest or weed control at 200 ppm [6] | pest or weed control at 200 ppm [7]

Cc1cc(C2=CC(c3cc(Cl)cc(Cl)c3)(C(F)(F)F)OC2)ccc1C(=O)NC1CCC1 (stereo not drawn) [Compound D23]
≥ 80%: pest or weed control at 200 ppm [6] | pest or weed control at 200 ppm [7] | pest or weed control at 12.5 ppm [3] | pest or weed control at 200 ppm [4]

Cc1cc(C2=COC(c3cc(Cl)cc(Cl)c3)(C(F)(F)F)C2)ccc1C(=O)N[C@@H]1CON(CC(F)(F)F)C1=O (stereo partly drawn) [Compound D25, 4-[2-(3,5-dichlorophenyl)-2-(trifluoromethyl)-3H-furan-4-yl]-2-methyl-N-[(4R)-3-oxo-2-(2,2,2-trifluoroethyl)isoxazolidin-4-yl]benzamide]
≥ 80%: pest or weed control at 200 ppm [1] | pest or weed control at 200 ppm [2] | pest or weed control at 200 ppm [6] | pest or weed control at 200 ppm [7] | pest or weed control at 12.5 ppm [3] | pest or weed control at 200 ppm [4] | pest or weed control at 200 ppm [5]

N#Cc1cc(C2=CO[C@@](c3cc(Cl)cc(Cl)c3)(C(F)(F)F)C2)ccc1-n1cncn1 [H1*, 5-[(2S)-2-(3,5-dichlorophenyl)-2-(trifluoromethyl)-3H-furan-4-yl]-2-(1,2,4-triazol-1-yl)benzonitrile]
≥ 80%: pest or weed control at 200 ppm [2] | pest or weed control at 200 ppm [6] | pest or weed control at 200 ppm [7] | pest or weed control at 12.5 ppm [3] | pest or weed control at 200 ppm [4]
